Read-outs that look alike come from different tables or passages of the source. *1 amine or outer side, *2 acyl side, *3 side chain or, on linkers, in order; H or OH if unused. Where a SMILES comes first, the peptide text is derived from it. [ ]: non-standard residue; d: D form. The star is where a group is joined. Camptothecin(20R,20-O) = CC[C@]1(O*)C(=O)OCc2c1cc1n(c2=O)Cc2cc3ccccc3nc2-1; X2 = CCCNC(=O)Nc1cccc(S(=O)(=O)Nc2cccc(C(CC(=O)O)NC(=O)Nc3ccc(N*)cc3)c2)c1; X3 = O=C(Nc1cccc(-c2ccc(S(=O)(=O)*)cc2)c1)Nc1nc2ccccc2[nH]1; X5 = O=C(Nc1cccc(-c2cccc(S(=O)(=O)*)c2)c1)Nc1nc2ccccc2[nH]1; X1 = CCCNC(=O)Nc1cccc(S(=O)(=O)Nc2cccc(C(CC(=O)O)N*)c2)c1; NH(1,4-C6H4)NHCS = S=C(Nc1ccc(N[*:1])cc1)[*:2]; X4 = O=C(O)CC(N[*:1])c1cccc(NC(=S)[*:2])c1; CO = O=C([*:1])[*:2]
Key:
SW 480 = test: Growth inhibition test (MTT), cytotoxic action on tumour cell lines; assay type: cell-based, human
Experimental: (§1) The human large intestine cell lines SW 480 and HT29 (ATCC No. CCL 228 and HTB38 and the mouse melanoma cell line B16F10 (CRL 6475) were grown to confluence in Roux dishes in RPMI 1640 medium with addition of 10% FCS. They were then trypsinized and taken up in RPMI plus 10% FCS to a cell count of 50,000 cells or, for B16F10, 20,000 cells per ml. 100 μl of cell suspension/well were added to a 96 microwell plate and incubated at 37° C. for 1 day in a CO2 incubator. A further 100 μl of RPMI medium and 1 μl of DMSO were then added with the test substances. The growth was checked after day 6. For this, 25 μl of MTT solution (3-(4,5-dimethylthiazol-2-yl)-2,5-diphenyltetrazolium bromide) was added to each well at a starting concentration of 5 mg/ml of H2O. The plate was incubated at 37° C. for 5 hours in a CO2 incubator. The medium was then aspirated and 100 μl of i-propanol/well were added. After shaking with 100 μl of H2O for 30 min, the extinction was measured at 595 nm using a Multiplate Reader (BIO-RAD) 3550-UV).
(§2) The cytostatic action is indicated in Table 2 as an IC50 value, in each case for the individual cell lines.

HT29 = test: as above; assay type: cell-based, human
Experimental: as §1, §2

B16F10 = test: as above; assay type: cell-based, mouse
Experimental: as §1, §2

αvβ3 receptor = biological target: T1, αvβ3 receptor (Homo sapiens, UniProt P05106+P06756); test: αvβ3 binding test (echistatin displacement, WGA SPA beads); settings: αvβ3 from human A375 cells
T1 construct: αvβ3 from human A375 cells was purified; endogenous in cells; host or cells: human A375 cells (receptor purified from the cells, analogous to Wong et al. 1996)
Experimental: αvβ3 from human A375 cells was purified analogously to a procedure which was described by Wong et al. (Molecular Pharmacology, 50, 529-537 (1996)). In each case, 10 μl of αvβ3 (5 ng) in TBS pH 7.6, 2 mM CaCl2, 1 mM MgCl2, 1% n-octylglucopyranoside (Sigma); 10 μl of test substance in TBS pH 7.6, 0.1% DMSO and 45 μl of TBS pH 7.6, 2 mM CaCl2, 1 mM MgCl2, 1 mM MnCl2 were incubated at room temperature for 1 h. In each case, 25 μl of WGA SPA beads (Amersham, 4 mg/ml) and 10 μl of echistatin (0.1 μCi, Amersham, chloramine-T labelled) were then added. After 16 hours at room temperature, the samples were measured in a scintillation measuring apparatus (Wallac 1450).

MMP-2 = biological target: T2, MMP-2 (Homo sapiens, UniProt P08253); test: Cleavage of conjugates by MMP-2 in buffer (HPLC); assay type: biochemical; settings: after 6 h incubation with MMP-2; buffer pH 7.5
T2 construct: purchased Calbiochem
T2 sequence (P08253 110-660): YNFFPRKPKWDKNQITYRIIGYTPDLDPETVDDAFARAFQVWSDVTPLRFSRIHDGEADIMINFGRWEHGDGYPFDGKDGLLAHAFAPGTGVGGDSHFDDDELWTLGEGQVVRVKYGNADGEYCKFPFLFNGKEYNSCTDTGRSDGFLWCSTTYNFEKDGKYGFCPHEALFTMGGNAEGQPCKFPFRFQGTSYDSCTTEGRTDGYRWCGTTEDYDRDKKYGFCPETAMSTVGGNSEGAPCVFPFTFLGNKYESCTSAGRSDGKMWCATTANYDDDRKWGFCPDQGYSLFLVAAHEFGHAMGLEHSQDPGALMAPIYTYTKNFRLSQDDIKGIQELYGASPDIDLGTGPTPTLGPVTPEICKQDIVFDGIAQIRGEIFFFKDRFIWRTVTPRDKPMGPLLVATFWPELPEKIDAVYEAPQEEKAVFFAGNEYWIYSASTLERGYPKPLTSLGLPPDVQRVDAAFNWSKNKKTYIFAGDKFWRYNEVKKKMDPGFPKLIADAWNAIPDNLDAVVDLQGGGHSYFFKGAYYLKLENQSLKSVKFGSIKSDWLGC
Experimental: 2.5 μl MMP-2 (Calbiochem) with a specific activity of 60 μU/μl are incubated with 10 nM of the conjugates exemplified in the example series 1-25 in 1 ml of a medium consisting of 50 mM Tris-HCl pH 7.5, 0.2 M NaCl, 10 mM CaCL2*2H2O and 0.05% Brij 35. The enzyme mediated cleavage of the conjugates is detected by HPLC analysis using an RP18 (5 μM) column with 70% HClO4/water (0.4% v/v) as eluent A and acentonitrile as eluent B (UV detection at […]). The efficiency of the cleavage is assessed by comparing the peak areas of the intact conjugate (starting material) and the cleavage product (tripeptide conjugate of camptothecin) after 6 h and 24 h incubation (cf. Table 5).

[1] = read-out: IC50 values of the binding to the αvβ3 receptor
[2] = SW480, MTT after day 6, read-out: IC50 values of the cytotoxic action on tumour cell lines, SW480
[3] = HT29, MTT after day 6, read-out: IC50 values of the cytotoxic action on tumour cell lines, HT29
[4] = B16F10, MTT after day 6, read-out: IC50 values of the cytotoxic action on tumour cell lines, B16F10
[5] = IC50 values of the binding to the αvβ3 receptor

T1 sequence (P06756 31-889 limits assumed): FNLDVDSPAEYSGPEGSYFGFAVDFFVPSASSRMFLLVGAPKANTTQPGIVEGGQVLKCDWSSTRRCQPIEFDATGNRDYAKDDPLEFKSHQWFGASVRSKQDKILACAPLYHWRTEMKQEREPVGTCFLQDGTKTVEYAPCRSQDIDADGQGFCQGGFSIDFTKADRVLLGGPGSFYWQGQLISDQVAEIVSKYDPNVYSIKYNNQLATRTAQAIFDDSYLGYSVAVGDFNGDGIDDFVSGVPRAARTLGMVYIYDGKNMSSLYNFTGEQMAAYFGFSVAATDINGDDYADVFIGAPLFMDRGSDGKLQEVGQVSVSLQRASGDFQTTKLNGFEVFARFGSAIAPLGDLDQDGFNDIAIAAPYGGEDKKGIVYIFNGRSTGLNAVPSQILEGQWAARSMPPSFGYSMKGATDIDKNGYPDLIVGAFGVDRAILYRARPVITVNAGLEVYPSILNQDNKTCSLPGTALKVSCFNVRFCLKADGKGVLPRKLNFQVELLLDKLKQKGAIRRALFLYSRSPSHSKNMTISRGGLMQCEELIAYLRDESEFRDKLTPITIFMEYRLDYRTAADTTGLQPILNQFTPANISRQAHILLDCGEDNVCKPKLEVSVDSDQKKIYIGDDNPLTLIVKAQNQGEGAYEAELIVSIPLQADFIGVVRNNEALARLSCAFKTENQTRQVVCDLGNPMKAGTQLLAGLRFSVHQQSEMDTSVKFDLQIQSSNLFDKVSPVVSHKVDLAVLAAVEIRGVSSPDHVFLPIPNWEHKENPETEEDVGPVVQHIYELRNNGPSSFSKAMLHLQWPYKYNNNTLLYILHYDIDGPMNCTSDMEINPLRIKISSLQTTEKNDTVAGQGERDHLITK
T1 sequence (P06756 891-1048 partner limits assumed): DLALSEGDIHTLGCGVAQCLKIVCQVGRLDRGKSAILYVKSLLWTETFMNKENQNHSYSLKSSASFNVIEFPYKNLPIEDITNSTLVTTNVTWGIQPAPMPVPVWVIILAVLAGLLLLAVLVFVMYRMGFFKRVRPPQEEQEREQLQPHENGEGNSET
T1 sequence (P05106 27-788): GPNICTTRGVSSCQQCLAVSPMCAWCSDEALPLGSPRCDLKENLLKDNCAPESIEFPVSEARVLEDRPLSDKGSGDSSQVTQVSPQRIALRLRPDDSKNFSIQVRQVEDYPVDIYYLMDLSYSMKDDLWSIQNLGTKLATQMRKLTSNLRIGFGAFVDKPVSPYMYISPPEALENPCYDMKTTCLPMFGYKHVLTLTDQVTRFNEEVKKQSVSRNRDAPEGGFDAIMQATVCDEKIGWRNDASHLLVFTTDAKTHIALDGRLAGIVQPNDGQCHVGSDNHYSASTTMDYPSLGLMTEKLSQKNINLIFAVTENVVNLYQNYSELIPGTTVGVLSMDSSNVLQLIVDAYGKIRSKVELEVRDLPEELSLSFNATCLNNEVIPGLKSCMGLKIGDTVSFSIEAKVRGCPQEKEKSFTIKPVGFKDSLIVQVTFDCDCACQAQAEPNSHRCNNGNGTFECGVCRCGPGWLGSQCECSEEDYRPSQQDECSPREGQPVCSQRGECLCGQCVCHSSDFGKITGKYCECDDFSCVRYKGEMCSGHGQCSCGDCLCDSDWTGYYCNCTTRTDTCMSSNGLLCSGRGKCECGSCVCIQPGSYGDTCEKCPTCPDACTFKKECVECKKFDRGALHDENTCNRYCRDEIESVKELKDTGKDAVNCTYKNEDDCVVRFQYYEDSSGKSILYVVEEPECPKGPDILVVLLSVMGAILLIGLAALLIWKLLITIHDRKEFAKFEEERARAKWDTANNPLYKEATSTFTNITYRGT

Row | Structure (SMILES) | IC50 (SW 480; human, 6 days) | IC50 (HT29; human, 6 days) | IC50 (B16F10; mouse, 6 days) | IC50 (αvβ3 receptor; [1]) | MMP-2 mediated cleavage Peak area product/educt x100 (MMP-2) | IC50 (SW 480; [2]) | IC50 (HT29; [3]) | IC50 (B16F10; [4]) | IC50 (αvβ3 receptor; [5])
1 | CCCNC(=O)Nc1cccc(S(=O)(=O)Nc2cccc(C(CC(=O)O)NC(=O)Nc3ccc(NC(=S)N4CCC[C@@H]4C(=O)N[C@@H](CC(C)C)C(=O)NCC(=O)N[C@H](CC(C)C)C(=O)N[C@H](Cc4c[nH]cn4)C(=O)N[C@@H](C(=O)O[C@@]4(CC)C(=O)OCc5c4cc4n(c5=O)Cc5cc6ccccc6nc5-4)C(C)C)cc3)c2)c1 (single isomer, unassigned) [Example 3] | 150 nM | 200 nM | 600 nM | 45 nM | 25 | – | – | – | –
2 | CCCNC(=O)Nc1cccc(S(=O)(=O)Nc2cccc(C(CC(=O)O)NC(=O)Nc3ccc(NC(=S)N4CCC[C@@H]4C(=O)N[C@@H](CC(C)C)C(=O)NCC(=O)N[C@H](CC(C)C)C(=O)N[C@H](CC(N)=O)C(=O)N[C@@H](C(=O)O[C@@]4(CC)C(=O)OCc5c4cc4n(c5=O)Cc5cc6ccccc6nc5-4)C(C)C)cc3)c2)c1 (single isomer, unassigned) [Example 11] | 150 nM | 200 nM | 400 nM | 300 nM | 20 | – | – | – | –
3 | CC[C@]1(OC(=O)[C@H](NC(=O)[C@@H](Cc2c[nH]cn2)NC(=O)[C@@H](CC(C)C)NC(=O)CNC(=O)[C@H](CC(C)C)NC(=O)[C@H]2CCCN2C(=S)Nc2cccc(C(CC(=O)O)NS(=O)(=O)c3ccc(-c4cccc(NC(=O)Nc5nc6ccccc6[nH]5)c4)cc3)c2)C(C)C)C(=O)OCc2c1cc1n(c2=O)Cc2cc3ccccc3nc2-1 (stereo partly drawn) [Example 4] (X3-[X4][dP]LG[dL][dH][dV]-{Camptothecin(20R,20-O)}) | – | – | – | – | 6 | 70 nM | 90 nM | 400 nM | 150 nM
4 | CC[C@]1(OC(=O)[C@H](NC(=O)[C@@H](Cc2c[nH]cn2)NC(=O)[C@@H](CC(C)C)NC(=O)CNC(=O)[C@H](CC(C)C)NC(=O)[C@H]2CCCN2C(=S)Nc2cccc(C(CC(=O)O)NS(=O)(=O)c3cccc(-c4cccc(NC(=O)Nc5nc6ccccc6[nH]5)c4)c3)c2)C(C)C)C(=O)OCc2c1cc1n(c2=O)Cc2cc3ccccc3nc2-1 (stereo partly drawn) [Example 5] (X5-[X4][dP]LG[dL][dH][dV]-{Camptothecin(20R,20-O)}) | – | – | – | – | 5 | 80 nM | 100 nM | 350 nM | 6000 nM
5 | CCCNC(=O)Nc1cccc(S(=O)(=O)Nc2cccc(C(CC(=O)O)NC(=O)Nc3ccc(NC(=O)N4CCC[C@@H]4C(=O)N[C@@H](CC(C)C)C(=O)NCC(=O)N[C@H](CC(C)C)C(=O)N[C@H](Cc4c[nH]cn4)C(=O)N[C@@H](C(=O)O[C@@]4(CC)C(=O)OCc5c4cc4n(c5=O)Cc5cc6ccccc6nc5-4)C(C)C)cc3)c2)c1 (stereo partly drawn) [Example 6] ({X2-CO}-[dP]LG[dL][dH][dV]-{Camptothecin(20R,20-O)}) | – | – | – | – | 33 | 50 nM | 40 nM | 150 nM | 60 nM
6 | CCCNC(=O)Nc1cccc(S(=O)(=O)Nc2cccc(C(CC(=O)O)NC(=O)Nc3ccc(NC(=S)N4CCCC4C(=O)NC(CC(C)C)C(=O)NCC(=O)N[C@H](CC(C)C)C(=O)N[C@@H](C(=O)O[C@@]4(CC)C(=O)OCc5c4cc4n(c5=O)Cc5cc6ccccc6nc5-4)C(C)C)cc3)c2)c1 (stereo partly drawn) [Example 8] | – | – | – | – | – | 200 nM | 150 nM | 350 nM | 30 nM
7 | CCCNC(=O)Nc1cccc(S(=O)(=O)Nc2cccc(C(CC(=O)O)NC(=O)Nc3ccc(NC(=S)N4CCC[C@@H]4C(=O)N[C@@H](CC(C)C)C(=O)NCC(=O)N[C@H](CC(C)C)C(=O)N[C@H](CC(N)=O)C(=O)N[C@@H](C(=O)O[C@@]4(CC)C(=O)OCc5c4cc4n(c5=O)Cc5cc6ccccc6nc5-4)C(C)C)cc3)c2)c1 (stereo partly drawn) [Example 9] | 60 nM | 80 nM | 400 nM | 30 nM | – | – | – | – | –
8 | CCCNC(=O)Nc1cccc(S(=O)(=O)Nc2cccc(C(CC(=O)O)NC(=O)Nc3ccc(NC(=O)N4CCC[C@@H]4C(=O)N[C@@H](CC(C)C)C(=O)NCC(=O)N[C@H](CC(C)C)C(=O)N[C@H](CC(N)=O)C(=O)N[C@@H](C(=O)O[C@@]4(CC)C(=O)OCc5c4cc4n(c5=O)Cc5cc6ccccc6nc5-4)C(C)C)cc3)c2)c1 (stereo partly drawn) [Example 12] ({X2-CO}-[dP]LG[dL][dN][dV]-{Camptothecin(20R,20-O)}) | – | – | – | – | 70 | 40 nM | 30 nM | 150 nM | 300 nM
9 | CCCNC(=O)Nc1cccc(S(=O)(=O)Nc2cccc(C(CC(=O)O)NC(=O)Nc3ccc(NC(=S)N4CCC[C@@H]4C(=O)N[C@@H](CC(C)C)C(=O)NCC(=O)N[C@H](CC(C)C)C(=O)N[C@H](CSC)C(=O)N[C@@H](C(=O)O[C@@]4(CC)C(=O)OCc5c4cc4n(c5=O)Cc5cc6ccccc6nc5-4)C(C)C)cc3)c2)c1 (stereo partly drawn) [Example 13] ({X1-CO}-[NH(1,4-C6H4)NHCS][dP]LG[dL][dC](Me)[dV]-{Camptothecin(20R,20-O)}) | – | – | – | – | – | 80 nM | 100 nM | 400 nM | 50 nM
10 | CCCNC(=O)Nc1cccc(S(=O)(=O)Nc2cccc(C(CC(=O)O)NC(=O)Nc3ccc(NC(=O)N4CCC[C@@H]4C(=O)N[C@@H](CC(C)C)C(=O)NCC(=O)N[C@H](CC(C)C)C(=O)N[C@H](Cc4c[nH]c5ccccc45)C(=O)N[C@@H](C(=O)O[C@@]4(CC)C(=O)OCc5c4cc4n(c5=O)Cc5cc6ccccc6nc5-4)C(C)C)cc3)c2)c1 (stereo partly drawn) [Example 15] ({X2-CO}-[dP]LG[dL][dW][dV]-{Camptothecin(20R,20-O)}) | – | – | – | – | – | 1500 nM | 500 nM | 8000 nM | 500 nM
11 | CCCNC(=O)Nc1cccc(S(=O)(=O)Nc2cccc(C(CC(=O)O)NC(=O)Nc3ccc(NC(=S)N4CCC[C@@H]4C(=O)N[C@@H](CC(C)C)C(=O)NCC(=O)N[C@H](CSC)C(=O)N[C@H](Cc4c[nH]cn4)C(=O)N[C@@H](C(=O)O[C@@]4(CC)C(=O)OCc5c4cc4n(c5=O)Cc5cc6ccccc6nc5-4)C(C)C)cc3)c2)c1 (stereo partly drawn) [Example 19] | 60 nM | 80 nM | 300 nM | 20 nM | – | – | – | – | –
12 | CCCNC(=O)Nc1cccc(S(=O)(=O)Nc2cccc(C(CC(=O)O)NC(=O)Nc3ccc(NC(=S)N4CCC[C@@H]4C(=O)N[C@@H](CC(C)C)C(=O)NCC(=O)N[C@H](CC(C)C)C(=O)N[C@H](CCCCN)C(=O)N[C@H](C(=O)O[C@@]4(CC)C(=O)OCc5c4cc4n(c5=O)Cc5cc6ccccc6nc5-4)C(C)C)cc3)c2)c1 (stereo partly drawn) [Example 20] ({X1-CO}-[NH(1,4-C6H4)NHCS][dP]LG[dL][dK]V-{Camptothecin(20R,20-O)}) | – | – | – | – | – | 50 nM | 70 nM | 300 nM | 50 nM

Reference: patent US20020183256A1, “Cytostatic-integrin conjugates having specifically cleavable linking units” (priority 2000, published 2002)
